Consider three compounds from ChEMBL document CHEMBL3244021, “Structure and biological activity of (-)-[3H]dihydroalprenolol, a radioligand for studies of beta-adrenergic receptors” (J Med Chem, 1977).

A short description of data set [1]: Binding affinity to beta adrenergic receptor in frog erythrocyte membrane after 10 mins by liquid scintillation counting analysis. It counts as cell membranes, Anura.
The nature of data set [2]: Antagonist activity at beta adrenergic receptor in frog erythrocyte membrane assessed as inhibition of (-)-isoproterenol-stimulated adenylate cyclase activity measured as [32P]-cAMP level. It counts as cell membranes, Anura. A general note: Changes in cAMP serve as a functional read-out for many G protein-coupled receptors.
A short description of data set [3]: Stability of the compound. It counts as physicochemical.
Data set [4] in a line: Displacement of (-)-[3H]dihydroalprenolol from beta adrenergic receptor in frog erythrocyte membrane after 10 mins by liquid scintillation counting analysis. It counts as cell membranes, Anura.

One may read the Kd as the free concentration of one partner at which half of the binding sites on the other are occupied at equilibrium, for simple one-to-one binding. As to `[3H]C([3H])([3H])C([3H])([3H])Cc1ccccc1OCC(O)CNC(C)C` (single isomer, unassigned; (-)), the results for the Kd in data set [1] and in data set [2] were 3 nM and 4 nM, respectively. In addition, the Stability entry in data set [3] is on record as “Stable”.
For `CCCc1ccccc1OCC(O)CNC(C)C` (single isomer, unassigned; (-)), the dissociation constant Kd in data set [4] is 2.5 nM; in data set [2], 4 nM.
For `C=CCc1ccccc1OCC(O)CNC(C)C` (configuration not stated), the Kd in data set [4] amounted to 2.5 nM; in data set [2] it was 4 nM.
